From patent US20220168268A1, “SMALL-MOLECULE INHIBITOR OF PD-1/PD-L1, PHARMACEUTICAL COMPOSITION THEREOF WITH PD-L1 ANTIBODY, AND APPLICATION OF SAME” (Guangzhou Maxinovel Pharmaceuticals Co., Ltd., priority 2019, published 2022)
Where “and” joins values, the source holds several entries; their conditions need not be identical. Equal entries are not always repeated.

Key:
[1] = Pharmacokinetic experiment in mice (iv and oral gavage); type: in vivo; settings: mouse, whole blood; CD1 male mice; tail vein 2 mg/kg and oral gavage 10 mg/kg
Description: Glipizide (molecular formula was C21H27N5O4S, molecular weight was 445.5 g/mol, Analytical Reagent) purchased from Sigma-Aldrich (U.S.A.), was used as the internal standard for analysis. Methanol, acetonitrile and formic acid (HPLC grade) were purchased from Sigma-Aldrich (U.S.A.), and pure water was purchased from Hangzhou Wahaha Group Co., Ltd. (Hangzhou, China). Other chemical reagents were all analytical reagents.
CD1 male mice, six per group, 6-7 weeks old, 29-31 g, were purchased from LC Laboratory Animal Co. LTD. Before the experiment, the animals should be kept for at least 3 days to adapt to the environment. Throughout the experiment, the animals were required to fast overnight, and allowed to drink water freely during the period, and the surviving animals resumed feeding 4 hours after administration.
1. The compound was formulated into a solution with a concentration of 0.4 mg/mL with 10% DMSO, 10% Solutol HS 15 and 80% Saline.
2. The above prepared solution was administered to 3 mice by tail vein injection (compound dosage was 2 mg/kg), and was administered to another 3 mice by oral gavage (compound dosage was 10 mg/kg) simultaneously.
3. Approximately 30 μL of blood was collected from each of the above 6 mice at 5 minutes, 15 minutes, 30 minutes, 1 hour, 2 hours, 4 hours, 8 hours and 24 hours after administration into the EDTA-K2 anticoagulation tube (set on wet ice), and 20 μL of blood was immediately diluted with 60 μL of water, and then put in the refrigerator at −70° C. for long-term storage until the sample was analyzed.
4. 20 μL of the above solution was transfered into a 96-well deep well sample plate, and 150 μL of glipizide internal standard acetonitrile solution (the concentration was 100 ng/mL) was added, vortexed for 10 min, and centrifuged at […] for 10 min 1 μL of the supernatant was taken for LCMSMS analysis.
5. Based on the drug concentration-time data, WinNonlin 6.4 software (USA) was used to calculate the pharmacokinetic parameters of the compound according to the non-compartment model.

[2] = biological target: T1, PD-1/PD-L1 (Homo sapiens, UniProt Q9NZQ7); assay: Homogeneous Time-Resolved Fluorescence (HTRF) PD-1/PD-L1 binding assay; settings: CisBio kit
T1 construct: unspecified kit tag (tag1 or tag2, recognised by the detection antibodies); purchased CisBio 64CUS000C-1
T1 sequence (Q9NZQ7 19-238 limits assumed): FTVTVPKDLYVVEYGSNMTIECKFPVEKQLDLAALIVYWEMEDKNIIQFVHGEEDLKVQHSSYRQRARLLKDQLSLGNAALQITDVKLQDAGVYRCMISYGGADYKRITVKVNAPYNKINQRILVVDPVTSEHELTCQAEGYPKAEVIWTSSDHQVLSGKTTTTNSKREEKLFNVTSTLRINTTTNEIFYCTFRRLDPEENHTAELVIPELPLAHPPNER
Description: Homogenouse Time-Resolved Fluorescence (HTRF) binding assay was used to determine the binding activity of the compound of the present disclosure to PD-1/PD-L1.
The purchased kit (CisBio, #64CUS000C-1) contained the reagents required for experiments such as PD-1, PD-L1, anti-tagl-Eu, Anti-tag2-XL665, Dilute Buffer and Detection Buffer.
1. The compound was formulated to 10 concentrations with a three-fold concentration gradient with 100% DMSO.
2. The solution of the compound in DMSO was added to Dilute Buffer, and mixed evenly and then transferred to a 96-well plate.
3. PD-L1 was diluted with Dilute Buffer and added to the 96-well plate above.
4. PD-1 was diluted with Dilute Buffer, then added to the 96-well plate above and incubated at room temperature for 30 minutes.
5. One portion of anti-tag1-Eu and one portion of anti-tag2-XL665 were added to Detection Buffer, mixed evenly and transferred to the 96-well plate above.
6. The mixed solution in the 96-well plate were incubated at room temperature for 1 to 24 hours.
7. HTRF values were read by Envision.

[3] = test system: colon cancer MC-38-hPD-L1; assay: In vivo pharmacodynamics in hPD-1 knock-in mouse colon cancer MC-38-hPD-L1 model; set-up: species or system C57BL/6-hPD-1 mice; settings: D19; for Tumor Volume: mean ± SEM
Description: In vivo pharmacodynamics study of PD-L1 antibody Durvalumab and compound 29 used singly or in combination in hPD-1 knock-in mouse colon cancer MC-38-hPD-L1 model
Antibody: PD-L1 antibody Imfinzi (Durvalumab), 120 mg/2.4 mL (50 mg/mL), Lot: 041E17C. Manufacturer: AstraZeneca, purchased from Hong Kong Mingchuang Pharmacy Co., Ltd., stored at 2-8° C.
Experimental animals: Human PD-1 transgenic mice, strain: C57BL/6-hPD-1 mice, 6-8 weeks, weighing 18-21 grams, female, 120 mice, purchased from GemPharmatech Co., Ltd.
Human PD-L1 gene was knocked into MC-38 cells (MC-38-hPD-L1 cells), MC-38 cells was adherent cultured in vitro in DMEM medium with 10% heat-inactivated fetal bovine serum and hygromycinB (final concentration […]) at 37° C. under 5% CO2.
Passage cultivation was conducted three times a week. The cells were collected and counted at the exponential growth phase. 100 μL 1×10^6 MC-38-hPD-L1 cells suspension was inoculated into the right dorsal subcutaneous of C57BL/6-hPD-1 mice. 6 days after inoculation, 60 tumor-bearing mice with transplanted tumor volume ranging from 31.49 mm^3-110.26 mm^3 were selected, the mice were randomly divided into 6 groups, with 10 in each group, according to the experimental plan, and administration was started on the same day.
Preparation of vehicle: 800 mL sterile water was measured and added to volumertic flask. Magnetic stirring was carried out to produce vortex on the liquid surface. An aqueous solution of 10% (w/v) Cremophor RH40+20% (w/v) SBE-β-CD was obtained by slow addition of 100 g Cremophor RH40, followed by 200 g SBE-β-CD, and water to fix the solution volume to 1000 mL with fully stirring.
Preparation of Compound 29 suspension: 150.92 mg compound 29 was weighed and 12.5 […] 10% (w/v) Cremophor RH40+20% (w/v) SBE-β-CD (hereinafter referred to as vehicle) aqueous solution was added. A suspension was with a concentration of 12.0 mg/mL was obtained by fully mixing with vortexing for 2 minutes and ultrasonic treatment for 30 minutes. 5.0 mL of the suspension of compound 29 with a concentration of 12.0 mg/mL was pipetted, and 5.0 mL of vehicle was added to the suspension. The suspension with a concentration of 6.0 mg/mL was obtained by fully mixing with vortexing for 1 minute and ultrasonic treatment for 5 minutes. 2.0 mL of the suspension of compound 29 with a concentration of 12.0 mg/mL was pipetted, and 6.0 mL of vehicle was added to the suspension. The suspension with a concentration of 3.0 mg/mL was obtained by fully mixing with vortexing for 1 minute and ultrasonic treatment for 5 minutes. The suspension of compound 29 was prepared once a day.
Preparation of PD-L1 antibody: […] of Durvalumab stock solution (concentration: 50 mg/mL) was pipetted and divided into 6 portions in 5 mL sterile centrifuge tube, with 6.0 mg in each portion, then the portions were stored in a 4° C. refrigerator for late use. Before administration, 0.12 mL of stock solution (concentration: 50 mg/mL) was pipetted, 2.88 mL of 0.9% sodium chloride solution was added to the stock solution. 3 mL of the solution of Durvalumab with a final concentration 2 mg/mL was obtained by shaking slightly and fully vortexing.
1) The mice in the vehicle control group were weighed and recorded in an electronic balance according to the number. The mice in the vehicle control group were administered by oral gavage with vehicle according to the weight twice a day with a capacity of 0.1 mL/10 g. The time for administration was about 20 s for each mouse, and about 5 minutes in total for each group of 10 mice. 2) The mice in the compound 29 (30 mg/kg) group were weighed and recorded in an electronic balance according to the number. The mice in this group were administered by oral gavage with the prepared Compound 29 suspension according to the weight twice a day with a dosage of 30 mg/kg and a capacity of 0.1 mL/10 g. The time for administration was about 20 s for each mouse, and about 5 minutes in total for each group of 10 mice. […]

Work on Cc1c(/C=C/c2cc(CNC(C)(CO)C(=O)O)ccc2C(F)(F)F)cccc1-c1ccc2c(c1)OCCO2 (stereo not shown) yielded a bioavailability [1] of 5.98%.
COc1cc(/C=C/c2cccc(-c3ccccc3)c2C)cc(OC)c1CN[C@@H](CO)C(=O)O showed a bioavailability [1] of 3.08%.
Work on COc1cc(/C=C/c2cccc(-c3ccccc3)c2C)cc(OC)c1CN[C@@](C)(CO)C(=O)O yielded a bioavailability [1] of 3.89%.
COc1cc(/C=C/c2cccc(-c3ccccc3)c2C)cc(OC)c1CN[C@](C)(CO)C(=O)O showed a bioavailability [1] of 4.42%.
Work on Cc1c(/C=C/c2cc(CNC(CO)C(=O)O)ccc2C(F)(F)F)cccc1-c1ccccc1F (stereo not shown) [Compound 13, (E)-2-(3-(2-(2′-fluoro-2-methylbiphenyl-3-yl)vinyl)-4-(trifluoromethyl)benzylamino)-3-hydroxypropanoic Acid] yielded a bioavailability [1] of 16.1% and an IC50 [2] of 13 nM.
For Cc1c(/C=C/c2cc(CN[C@](C)(CO)C(=O)O)ccc2C(F)(F)F)cccc1-c1ccccc1 [Compound 27, (R,E)-2-(3-(2-(2-methylbiphenyl-3-yl)vinyl)-4-(trifluoromethyl)benzylamino)-3-hydroxy-2-methylpropanoic Acid], the bioavailability [1] was 52.3% and the IC50 [2] was 18 nM.
In the case of Cc1c(/C=C/c2cc(CN[C@@](C)(CO)C(=O)O)ccc2C(F)(F)F)cccc1-c1ccccc1 [Compound 29, (S,E)-2-(3-(2-(2-methylbiphenyl-3-yl)vinyl)-4-(trifluoromethyl)benzylamino)-3-hydroxy-2-methylpropanoic Acid], the bioavailability [1] is reported as 38.2%, the IC50 [2] is reported as 19 nM and the “Tumor Volume” value ([3]; 30 mg/kg, PO, BID) is reported as 459.82 ± 58.24/D19 mm^3. For the same compound, the “TGI (tumor inhibition rate)” value ([3]; 30 mg/kg, PO, BID, vs vehicle control) was 24.95/D19%, the “Tumor Volume” value ([3]; 60 mg/kg, PO, BID) was 439.04 ± 51.23/D19 mm^3 and the “TGI (tumor inhibition rate)” value ([3]; 60 mg/kg, PO, BID, vs vehicle control) was 29.06/D19%. For the same compound, the “Tumor Volume” value ([3]; 120 mg/kg, PO, BID) was 325.23 ± 38.59/D19 mm^3 and the “TGI (tumor inhibition rate)” value ([3]; 120 mg/kg, PO, BID, vs vehicle control (max tumor inhibition rate of Compound 29)) was 51.21% and 51.21/D19%.
In the case of Cc1c(/C=C/c2cc(CN[C@@](C)(CO)C(=O)O)ccc2C(F)(F)F)cccc1-c1cccnc1 [Compound 40, (S,E)-3-hydroxy-2-methyl-2-(3-(2-methyl-3-(pyridin-3-yl)styryl)-4-(trifluoromethyl)benzylamino)propanoic Acid], the IC50 [2] is reported as 580 nM.
For Cc1c(/C=C/c2cc(CN[C@@](C)(CO)C(=O)O)ccc2C(F)(F)F)cccc1-c1cnccn1 [Compound 41, (S,E)-3-hydroxy-2-methyl-2-(3-(2-methyl-3-(pyrazin-2-yl)styryl)-4-(trifluoromethyl)benzylamino)propanoic Acid], the IC50 [2] was 540 nM.
Cc1c(/C=C/c2cc(CN[C@@](C)(CO)C(=O)O)ccc2C(F)(F)F)cccc1-c1ccc2cn(C)nc2c1 [Compound 42, (S,E)-3-hydroxy-2-methyl-2-(3-(2-methyl-3-(2-methyl-2H-indazol-6-yl)-styryl)-4-(trifluoromethyl)benzylamino)propanoic Acid] gave an IC50 [2] of 880 nM.
Work on Cc1nc2ccc(-c3cccc(/C=C/c4cc(CN[C@@](C)(CO)C(=O)O)ccc4C(F)(F)F)c3C)cc2o1 [Compound 43, (S,E)-3-hydroxy-2-methyl-2-(3-(2-methyl-3-(2-methylbenzo[d]oxazol-6-yl)-styryl)-4-(trifluoromethyl)benzylamino)-3-hydroxy-2-methylpropanoic Acid] yielded an IC50 [2] of 540 nM.
With “Durvalumab: PD-L1 antibody Imfinzi (Durvalumab), 50 mg/mL, manufacturer AstraZeneca [reference compound]” the “Tumor Volume” value ([3]; Durvalumab 20 mg/kg, IP, BIW) was 341.19 ± 56.59/D19 mm^3 and the “TGI (tumor inhibition rate)” value ([3]; Durvalumab 20 mg/kg, IP, BIW, vs vehicle control) was 48.17% and 48.17/D19%.
